# Biological target: T1, B1R of the rat (Rattus norvegicus, UniProt P97583)
# T1 construct: expressed in transfected cells; host or cells: CHO K1 cells (Chinese hamster ovary), stably transfected
# T1 sequence (P97583 1-337): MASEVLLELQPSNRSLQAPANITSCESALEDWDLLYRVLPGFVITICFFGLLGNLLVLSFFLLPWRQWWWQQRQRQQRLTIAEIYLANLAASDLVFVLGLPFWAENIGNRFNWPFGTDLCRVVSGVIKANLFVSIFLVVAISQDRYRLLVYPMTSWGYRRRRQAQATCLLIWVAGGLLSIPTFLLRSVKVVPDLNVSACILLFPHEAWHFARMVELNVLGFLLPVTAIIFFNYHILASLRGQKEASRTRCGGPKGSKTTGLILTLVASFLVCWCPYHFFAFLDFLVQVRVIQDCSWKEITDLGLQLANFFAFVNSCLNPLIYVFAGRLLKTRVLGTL
# Assay: FLIPR Ca2+ functional assay, B1R antagonism, rat B1R in CHO K1 cells
# Type: cell-based
# Details: test substance 10 μM; rB1R CHO K1 cells; agonist Des-Arg9 bradykinin at EC80; % of maximum achievable inhibition
# Procedure: The agonistic or antagonistic action of substances on the bradykinin 1 receptor (B1R) of the human and rat species can be quantified with ectopically expressing cell lines (CHO K1 cells) and with the aid of a Ca^2+-sensitive dye (Fluo-4) using a fluorescent imaging plate reader (FLIPR). The value in % activation is based on the Ca^2+ signal after addition of Lys-Des-Arg^9 bradykinin (0.5 nM) or Des-Arg^9 bradykinin (100 nM). Antagonists lead to a suppression of the Ca^2+ influx following administration of the agonist. The % inhibition in comparison with the maximum achievable inhibition is indicated.
# 1. Functional Investigation on the Bradykinin 1 Receptor (B1R) The agonistic or antagonistic action of substances can be determined on the bradykinin 1 receptor (B1R) of the human and rat species with the following assay. According to this assay, the Ca^2+ inflow through the channel is quantified with the aid of a Ca^2+-sensitive dye (Fluo-4 type, Molecular Probes Europe BV, Leiden, Netherlands) in a fluorescent imaging plate reader (FLIPR, Molecular Devices, Sunnyvale, USA). 2. Method: Chinese hamster ovary cells (CHO K1 cells) which are stably transfected with the human B1R gene (hB1R cells) or the B1R gene of the rat (rB1R cells) are used. For functional investigations these cells are plated-out onto black 96-well plates with a clear base (BD Biosciences, Heidelberg, Germany or Greiner, Frickenhausen, Germany) in a density of 20,000-35,000 cells/well. Overnight the cells are incubated at 37° C. and 5% CO2 in culture medium (hB1R cells: Ham's Nutrient Mixture F12, Gibco Invitrogen GmbH, Karlsruhe, Germany or DMEM, Sigma-Aldrich, Taufkirchen, Germany; rB1R cells: D-MEM/F12, Gibco Invitrogen, Karlsruhe, Germany) with 10 vol. % FBS (foetal bovine serum, Gibco Invitrogen GmbH, Karlsruhe, Germany or PAN Biotech GmbH, Aidenbach, Germany).
# On the following day the cells are loaded with 2.13 μM Fluo-4 (Molecular Probes Europe BV, Leiden, Netherlands) in HBSS buffer (Hank's buffered saline solution, Gibco Invitrogen GmbH, Karlsruhe, Germany) with 2.5 mM probenecid (Sigma-Aldrich, Taufkirchen, Germany) and 10 mM HEPES (Sigma-Aldrich, Taufkirchen, Germany) for 60 min at 37° C. The plates are subsequently washed twice with HBSS buffer, and HBSS buffer which additionally contains 0.1% BSA (bovine serum albumin; Sigma-Aldrich, Taufkirchen, Germany), 5.6 mM glucose and 0.05% gelatine (Merck KGaA, Darmstadt, Germany) is added. After a further incubation of 20 minutes at RT, the plates are inserted into the FLIPR for Ca^2+ measurement. Alternatively they are washed with buffer A (15 mM HEPES, 80 mM NaCl, 5 mM KCl, 1.2 mM CaCl2, 0.7 mM MgSO4, 2 g/l glucose, 2.5 mM probenecid) and loaded with buffer A with added 2.5 μM Fluo-4 and 0.025% Pluronic F127 (Sigma-Aldrich, Taufkirchen, Germany). The cells are then washed twice with buffer A and incubated for 30 minutes with buffer A, which additionally contains 0.05% BSA and 0.05% gelatine, at RT and then used for Ca^2+ measurement in the FLIPR. The Ca^2+-dependent fluorescence is measured here before and after addition of substances (λex=488 nm, λem=540 nm). The quantification is performed by measuring the highest fluorescence intensity (FC, fluorescence counts) over time.
# The FLIPR protocol comprises two additions of substance. Test substances (10 μM) are first pipetted onto the cells and the Ca^2+ inflow is compared with the control (hB1R: Lys-Des-Arg^9 bradykinin >=50 nM; rB1R: Des-Arg^9 bradykinin 10 μM). The value in % activation based on the Ca^2+ signal after addition of Lys-Des-Arg^9 bradykinin (>=50 nM) or Des-Arg^9 bradykinin (10 μM) is obtained therefrom. After incubation for 10-20 minutes, Lys-Des-Arg^9 bradykinin (hB1R) or Des-Arg^9 bradykinin (rB1R) is applied in the EC80 concentration and the inflow of Ca^2+ is likewise determined.
# Antagonists lead to a suppression of the Ca^2+ inflow. The % inhibition in comparison with the maximum achievable inhibition is calculated. […]
row,SMILES,inhibition at 10 µM
1,"O=C(CC1c2cccn2CCN1S(=O)(=O)c1ccccc1)N1CCC[C@H]1CN1CCCC1 (stereo partly drawn) [Example 264, 2-[2-(Benzenesulfonyl)-1,2,3,4-tetrahydro-pyrrolo[1,2-a]pyrazin-1-yl]-1-[(2S)-2-(pyrrolidin-1-yl-methyl)-pyrrolidin-1-yl]-ethanone]",1.78%
2,"Cc1cccc(Cl)c1S(=O)(=O)N1CCn2cccc2C1CC(=O)N1CCC(N2CCN(C)CC2)CC1 (stereo not shown) [Example 161, 2-[2-[(2-Chloro-6-methyl-phenyl)sulfonyl]-1,2,3,4-tetrahydro-pyrrolo[1,2-a]pyrazin-1-yl]-1-[4-(4-methyl-piperazin-1-yl)-piperidin-1-yl]-ethanone]",10.5%
3,"COc1ccc(CN2CCN(C(=O)CC3c4cccn4CCN3S(=O)(=O)c3c(C)cc(OC)cc3C)CC2)cc1 (stereo not shown) [Example 242, 2-[2-[(4-Methoxy-2,6-dimethyl-phenyl)sulfonyl]-1,2,3,4-tetrahydro-pyrrolo[1,2-a]pyrazin-1-yl]-1-[4-[(4-methoxyphenyl)-methyl]-piperazin-1-yl]-ethanone]",8.4%
4,"O=C(CC1c2cccn2CCN1S(=O)(=O)c1ccccc1)NC1CCN(Cc2ccccc2)C1 (stereo not shown) [Example 171, 2-[2-(Benzenesulfonyl)-1,2,3,4-tetrahydro-pyrrolo[1,2-a]pyrazin-1-yl]-N-(1-benzyl-pyrrolidin-3-yl)-acetamide]",24.4%
5,"COc1cc(C)c(S(=O)(=O)N2CCn3cccc3C2CC(=O)N2CCN(Cc3ccc(C)cc3)CC2)c(C)c1 (stereo not shown) [Example 241, 2-[2-[(4-Methoxy-2,6-dimethyl-phenyl)sulfonyl]-1,2,3,4-tetrahydro-pyrrolo[1,2-a]pyrazin-1-yl]-1-[4-(p-tolyl-methyl)-piperazin-1-yl]-ethanone]",46.8%
6,"Cc1cccc(Cl)c1S(=O)(=O)N1CCn2cccc2C1CC(=O)N1CCCCC1Cc1ccccn1 (stereo not shown) [Example 250, 2-[2-[(2-Chloro-6-methyl-phenyl)sulfonyl]-1,2,3,4-tetrahydro-pyrrolo[1,2-a]pyrazin-1-yl]-1-[2-(pyridin-2-yl-methyl)-piperidin-1-yl]-ethanone]",-38%
7,"O=C(CC1c2cccn2CCN1S(=O)(=O)c1ccccc1)N1CCC(O)(c2cccnc2)CC1 (stereo not shown) [Example 167, 2-[2-(Benzenesulfonyl)-1,2,3,4-tetrahydro-pyrrolo[1,2-a]pyrazin-1-yl]-1-(4-hydroxy-4-pyridin-3-yl-piperidin-1-yl)-ethanone]",0.145%
8,"COc1cc(C)c(S(=O)(=O)N2CCn3cccc3C2CC(=O)N(C)C(CN2CCOCC2)c2ccccc2)c(C)c1 (stereo not shown) [Example 256, 2-[2-[(4-Methoxy-2,6-dimethyl-phenyl)sulfonyl]-1,2,3,4-tetrahydro-pyrrolo[1,2-a]pyrazin-1-yl]-N-methyl-N-(2-morpholin-4-yl-1-phenyl-ethyl)-acetamide]",5.54%
9,"Cc1ccc2[nH]c(C3CCN(C(=O)CC4c5cccn5CCN4S(=O)(=O)c4c(C)cccc4Cl)CC3)nc2c1 (stereo not shown) [Example 163, 2-[2-[(2-Chloro-6-methyl-phenyl)sulfonyl]-1,2,3,4-tetrahydro-pyrrolo[1,2-a]pyrazin-1-yl]-1-[4-(5-methyl-1H-benzoimidazol-2-yl)-piperidin-1-yl]-ethanone]",39.7%
10,"O=C(CC1c2cccn2CCN1S(=O)(=O)c1ccccc1)N1CCN(Cc2ccccc2F)CC1 (stereo not shown) [Example 234, 2-[2-(Benzenesulfonyl)-1,2,3,4-tetrahydro-pyrrolo[1,2-a]pyrazin-1-yl]-1-[4-[(2-fluorophenyl)-methyl]-piperazin-1-yl]-ethanone]",17.3%
11,"COc1cc(C)c(S(=O)(=O)N2CCn3cccc3C2CC(=O)N2CCN(c3ccccc3)CC2)c(C)c1 (stereo not shown) [Example 145, 2-[2-[(4-Methoxy-2,6-dimethyl-phenyl)sulfonyl]-1,2,3,4-tetrahydro-pyrrolo[1,2-a]pyrazin-1-yl]-1-(4-phenyl-piperazin-1-yl)-ethanone]",57.7%
12,"COc1cc(C)c(S(=O)(=O)N2CCn3cccc3C2CC(=O)N2CCN(c3ccccn3)CC2)c(C)c1 (stereo not shown) [Example 149, 2-[2-[(4-Methoxy-2,6-dimethyl-phenyl)sulfonyl]-1,2,3,4-tetrahydro-pyrrolo[1,2-a]pyrazin-1-yl]-1-(4-pyridin-2-yl-piperazin-1-yl)-ethanone]",68.9%
13,"COc1cc(C)c(S(=O)(=O)N2CCn3cccc3C2CC(=O)N2CCN(c3ccccc3F)CC2)c(C)c1 (stereo not shown) [Example 144, 1-[4-(2-Fluorophenyl)-piperazin-1-yl]-2-[2-[(4-methoxy-2,6-dimethyl-phenyl)sulfonyl]-1,2,3,4-tetrahydro-pyrrolo[1,2-a]pyrazin-1-yl]-ethanone]",70.3%
14,"Cc1cccc(Cl)c1S(=O)(=O)N1CCn2cccc2C1CC(=O)N1CCC(N2CCOCC2)CC1 (stereo not shown) [Example 159, 2-[2-[(2-Chloro-6-methyl-phenyl)sulfonyl]-1,2,3,4-tetrahydro-pyrrolo[1,2-a]pyrazin-1-yl]-1-(4-morpholin-4-yl-piperidin-1-yl)-ethanone]",3.48%
15,"COc1cc(C)c(S(=O)(=O)N2CCn3cccc3C2CC(=O)N2CCN(CCO)CC2)c(C)c1 (stereo not shown) [Example 258, 1-[4-(2-Hydroxy-ethyl)-piperazin-1-yl]-2-[2-[(4-methoxy-2,6-dimethyl-phenyl)sulfonyl]-1,2,3,4-tetrahydro-pyrrolo[1,2-a]pyrazin-1-yl]-ethanone]",9.05%
16,"Cc1cccc(Cl)c1S(=O)(=O)N1CCn2cccc2C1CC(=O)N1CCN(c2ccccc2F)CC1 (stereo not shown) [Example 158, 2-[2-[(2-Chloro-6-methyl-phenyl)sulfonyl]-1,2,3,4-tetrahydro-pyrrolo[1,2-a]pyrazin-1-yl]-1-[4-(2-fluorophenyl)-piperazin-1-yl]-ethanone]",32%
17,"COc1cc(C)c(S(=O)(=O)N2CCn3cccc3C2CC(=O)NCC2CCCN(Cc3ccccc3)C2)c(C)c1 (stereo not shown) [Example 248, N-[(1-Benzyl-piperidin-3-yl)-methyl]-2-[2-[(4-methoxy-2,6-dimethyl-phenyl)sulfonyl]-1,2,3,4-tetrahydro-pyrrolo[1,2-a]pyrazin-1-yl]-acetamide]",84%
18,"COc1cc(C)c(S(=O)(=O)N2CCn3cccc3C2CC(=O)N2CCN(c3ccc(Cl)c(Cl)c3)CC2)c(C)c1 (stereo not shown) [Example 238, 1-[4-(3,4-Dichlorophenyl)-piperazin-1-yl]-2-[2-[(4-methoxy-2,6-dimethyl-phenyl)sulfonyl]-1,2,3,4-tetrahydro-pyrrolo[1,2-a]pyrazin-1-yl]-ethanone]",17.6%
19,"Cc1cccc(Cl)c1S(=O)(=O)N1CCn2cccc2C1CC(=O)N1CCCCC1Cc1ccncc1 (stereo not shown) [Example 251, 2-[2-[(2-Chloro-6-methyl-phenyl)sulfonyl]-1,2,3,4-tetrahydro-pyrrolo[1,2-a]pyrazin-1-yl]-1-[2-(pyridin-4-yl-methyl)-piperidin-1-yl]-ethanone]",-37.1%

# Source: patent US8158628B2, “Sulfonylated 1,2,3,4-tetrahydropyrrolo[1,2-a]pyrazine compounds and their use as pharmaceuticals” (Gruenenthal GmbH, priority 2009, dated 2012)
